Measured values: PubChem BioAssay (NCI)
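Following 48 hours of exposure in 96-well plates, responses at five concentrations were used to interpolate endpoints linearly. TGI: total growth inhibition.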

Legend:
Assay in all cases: NCI tumour cell line growth inhibition, 48 h
SN12K1 renal = system: SN12K1 renal
KM20L2 colon = system: KM20L2 colon
XF 498 CNS = system: XF 498 CNS
P388 leukemia = system: P388 leukemia
786-0 renal = system: 786-0 renal
SR leukemia = system: SR leukemia
P388/ADR leukemia = system: P388/ADR leukemia
LXFL 529 NSCLC = system: LXFL 529 NSCLC

SMILES | TGI (SN12K1 renal) [µM] | TGI (KM20L2 colon) [µM] | TGI (XF 498 CNS) [µM] | TGI (P388 leukemia) [µM] | TGI (786-0 renal) [µM] | TGI (SR leukemia) [µM] | also measured
CC(=O)Nc1ccc(/C=C/c2ccc(NC(=O)Nc3ccc(/C=C/c4ccc(NC(C)=O)cc4S(=O)(=O)O)c(S(=O)(=O)O)c3)cc2S(=O)(=O)O)c(S(=O)(=O)O)c1 | > 100 | > 100 | > 100 | > 100 | – | – | –
COCc1nc2c(OC)c(-c3nc4nc(N5CCN(C)CC5)ccc4[nH]3)cc(OC)c2n1C | – | – | – | – | > 100 | – | –
CC1CC2=C(S(=O)(=O)c3ccccc3)CC(S(=O)(=O)c3ccccc3)(S(=O)(=O)c3ccccc3)CC21 (stereo unspecified) | – | > 100 | > 100 | – | – | > 100 | –
COCCCNc1nc(N)c(C#N)c(C#N)c1C#N | – | – | – | – | – | > 10 | –
CCOC(=O)c1ccc(N[C@@H]2c3cc4c(cc3C(c3cc(OC)c(O)c(OC)c3)[C@H]3C(=O)OCC32)OCO4)cc1O (stereo partly specified) | 11.3 | > 22.3 | 16.9 | 0.902 | – | – | TGI (P388/ADR leukemia): 0.324 µM
CC1CCCCNC1=S (stereo unspecified) | – | – | – | – | – | > 10 | –
CCOC(=O)CNC(=O)N(CC)C12CC3CC(CC(C3)C1)C2 | 181 | 223 | 342 | 260 | – | – | TGI (P388/ADR leukemia): 421 µM
COc1ccc(S(=O)(=O)c2ccccc2[N+](=O)[O-])cc1 | – | > 100 | – | – | – | > 100 | TGI (LXFL 529 NSCLC): > 100 µM
C/C(=N/NC(N)=S)c1ccc[nH]1 | – | – | – | – | > 100 | – | –
CCC(=O)Oc1ccc2c(c1)c(=O)c1c(NCCCN(C)C)ccc3nnn2c31 | – | – | – | – | 7.06 | 6.01 | –
